Tests used:
Type in all cases: cell-based
Settings in all cases: 100 ng/me of peptide; EBV-infected B cells stimulated with anti-CD150; ELISA of culture supernatant
IL-34 = assay: Reduction of IL-34 secretion in activated B cells (ELISA)
Method: (§1) In order to determine the activity of the novel peptides synthesized in Example 1 for reducing the secretion of inflammatory cytokines, the activated pathogenic B cells were treated with each of the 18 types of synthesized novel peptides and the reduction in secretion of inflammatory cytokines from the B cells was monitored.
(§2) Specifically, in order to determine whether the novel peptides could weaken the pathogenic B cells which are involved in the development of disease symptoms, the in vitro B cells model which is similar to the joint infiltrative B cells of rheumatoid arthritis was used. The activated pathogenic B cell was generated by stimulating Ebstein Barr virus (EBV)-infected B cells with anti-CD150 antibodies, and the cells were treated with […] of each of the 18 types of novel peptide.
(§3) In order to confirm the effect of 18 types of novel peptides in reducing inflammatory cytokines, the secretion amount of various cytokines (IL-1A, IL-1B, IL-2, IL-4, IL-5, IL-6, IL-8, IL-10, IL-12A, IL-13, IL-17A, GM-CSF, IL-34) secreted from the activated B cells was measured. The supernatants of B cell culture were analyzed enzyme-linked immunosorbent assay (ELISA), and the difference in absorbance (450 nm-570 nm) of the color developing reagent was measured as test results. Based on the measured difference in absorbance (450 nm-570 nm) of the color developing reagent, the absorbance of cytokines secreted when treated with the 18 types of novel […] was calculated in percentage, while setting the absorbance corresponding to the cytokines secreted from the activated B cells stimulated by anti-CD150 as 100%.

IL-12A = assay: Reduction of IL-12A secretion in activated B cells (ELISA)
Method: as §1, §2, §3

IL-13 = assay: Reduction of IL-13 secretion in activated B cells (ELISA)
Method: as §1, §2, §3

GM-CSF = assay: Reduction of GM-CSF secretion in activated B cells (ELISA)
Method: as §1, §2, §3

IL-5 = assay: Reduction of IL-5 secretion in activated B cells (ELISA)
Method: as §1, §2, §3

IL-4 = assay: Reduction of IL-4 secretion in activated B cells (ELISA)
Method: as §1, §2, §3

IL-10 = assay: Reduction of IL-10 secretion in activated B cells (ELISA)
Method: as §1, §2, §3

IL-1A = assay: Reduction of IL-1A secretion in activated B cells (ELISA)
Method: as §1, §2, §3

IL-2 = assay: Reduction of IL-2 secretion in activated B cells (ELISA)
Method: as §1, §2, §3

IL-1B = assay: Reduction of IL-1B secretion in activated B cells (ELISA)
Method: as §1, §2, §3

IL-8 = assay: Reduction of IL-8 secretion in activated B cells (ELISA)
Method: as §1, §2, §3

IL-17A = assay: Reduction of IL-17A secretion in activated B cells (ELISA)
Method: as §1, §2, §3

IL-6 = assay: Reduction of IL-6 secretion in activated B cells (ELISA)
Method: as §1, §2, §3

Row | Substance | Inhibition rate of each cytokine compared to CD150-stimulated EBV-t B cells (%) IL-34 (IL-34) | Inhibition rate of each cytokine compared to CD150-stimulated EBV-t B cells (%) IL-12A (IL-12A) | Inhibition rate of each cytokine compared to CD150-stimulated EBV-t B cells (%) IL-13 (IL-13) | Inhibition rate of each cytokine compared to CD150-stimulated EBV-t B cells (%) GM-CSF (GM-CSF) | Inhibition rate of each cytokine compared to CD150-stimulated EBV-t B cells (%) IL-5 (IL-5) | Inhibition rate of each cytokine compared to CD150-stimulated EBV-t B cells (%) IL-4 (IL-4) | Inhibition rate of each cytokine compared to CD150-stimulated EBV-t B cells (%) IL-10 (IL-10) | Inhibition rate of each cytokine compared to CD150-stimulated EBV-t B cells (%) IL-1A (IL-1A) | Inhibition rate of each cytokine compared to CD150-stimulated EBV-t B cells (%) IL-2 (IL-2) | Inhibition rate of each cytokine compared to CD150-stimulated EBV-t B cells (%) IL-1B (IL-1B) | Inhibition rate of each cytokine compared to CD150-stimulated EBV-t B cells (%) IL-8 (IL-8) | Inhibition rate of each cytokine compared to CD150-stimulated EBV-t B cells (%) IL-17A (IL-17A) | Inhibition rate of each cytokine compared to CD150-stimulated EBV-t B cells (%) IL-6 (IL-6)
1 | PSPRDGRTDG (SIS-1#6 peptide) | 31.0% | 30.8% | 29.4% | 21.2% | 15.6% | 20.5% | 4.5% | 12.0% | 23.1% | 15.2% | 28.0% | 42.2% | 33.9%
2 | DGRTDG (SIS-1#9 peptide) | 15.0% | 20.8% | 13.2% | 15.0% | 16.2% | 16.0% | 14.2% | 20.4% | 15.5% | 18.2% | 15.4% | 9.2% | 18.8%
3 | RDGR (SIS-1#15 peptide) | 6.0% | 10.8% | 7.2% | 1.5% | 6.4% | 6.3% | 7.2% | 11.5% | 12.7% | 5.7% | 15.0% | 10.1% | 4.8%
4 | RDGRTDG (SIS-1#2 peptide) | 25.4% | 30.1% | 23.8% | 19.0% | 25.4% | 23.8% | 19.8% | 23.8% | 15.1% | 18.2% | 25.2% | 39.8% | 29.8%
5 | RDGRTDGRTD (SIS-1#8 peptide) | 19.8% | 19.2% | 33.5% | 19.8% | 12.0% | 18.9% | 10.0% | 30.2% | 33.0% | 25.9% | 29.2% | 30.1% | 23.8%
6 | RTDCTR (SIS-1#3 peptide) | 9.8% | 19.4% | 10.2% | 7.2% | 17.4% | 13.2% | 25.2% | 14.0% | 12.3% | 20.0% | 19.2% | 11.0% | 18.2%
7 | MSLPSP (SIS-1#1 peptide) | 18.8% | 19.8% | 15.0% | 18.0% | 18.5% | 19.8% | 7.2% | 7.8% | 13.5% | 9.3% | 17.5% | 24.8% | 19.2%

From patent publication US9403874B2, “Peptides and use thereof” (IL YANG PHARM. CO.,LTD., priority 2012, dated 2016)
